Consider three compounds from patent US6713265B1 (Synaptic Pharmaceutical Corporation, priority 1999, dated 2004).

Structures are written as SMILES. Where two headings read alike, the source gives them in different places.

For experiment [1], the target named is T1, rat Y5 receptor (Rattus norvegicus, UniProt Q63634).
T1 construct: expressed in transfected cells; host or cells: COS-7 (transient, DEAE-dextran)
The experiment can be described thus: Radioligand binding to membranes of cells expressing cloned rat Y5 receptor. Conditions: BIBP 3226 at cloned rat Y-type receptors.

Experiment [2] has as its target T2, rat Y4 receptor (Rattus norvegicus, UniProt Q63447).
T2 construct: expressed in transfected cells; host or cells: COS-7 (transient)
The experiment can be described thus: ^125I-PYY binding to membranes, cloned rat Y4 receptor. Conditions: BIBP 3226 at cloned rat Y-type receptors.

In experiment [3] the test system is canine Y5 receptor. The experiment is described as follows: Porcine ^125I-PYY binding to membranes of COS-7 cells transfected with canine Y5 receptor. The settings on record: COS-7 transient.
Experiment [4] has as its target T3, human Y2 receptor (Homo sapiens, UniProt P49146).
T3 construct: expressed in transfected cells; host or cells: COS-7 (transient)
T3 sequence (P49146 1-381): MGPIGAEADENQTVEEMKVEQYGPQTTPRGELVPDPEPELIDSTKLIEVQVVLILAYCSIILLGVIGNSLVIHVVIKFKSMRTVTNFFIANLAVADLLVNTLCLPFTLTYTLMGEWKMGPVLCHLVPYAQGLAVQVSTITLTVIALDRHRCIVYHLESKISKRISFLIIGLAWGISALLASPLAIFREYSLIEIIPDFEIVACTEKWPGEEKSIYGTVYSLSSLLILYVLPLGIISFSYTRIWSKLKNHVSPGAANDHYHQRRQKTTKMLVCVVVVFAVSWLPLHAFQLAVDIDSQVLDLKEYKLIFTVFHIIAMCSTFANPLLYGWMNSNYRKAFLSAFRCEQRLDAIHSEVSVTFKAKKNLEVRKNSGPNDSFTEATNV
The experiment can be described thus: ^125I-PYY binding to membranes, cloned human Y2 receptor.

Experiment [5] relates to human Y5 receptor. The experiment can be described thus: Radioligand binding to membranes of cells expressing cloned human Y5 receptor. The settings on record: BIBP 3226 at cloned human Y-type receptors.
For experiment [6], the target named is T4, rat Y2 receptor (Rattus norvegicus, UniProt Q9ERC0). The experiment can be described thus: ^125I-PYY binding to membranes, cloned rat Y2 receptor. The arrangement: expressed in transfected cells; host or cells: COS-7 (transient). The settings on record: BIBP 3226 at cloned rat Y-type receptors.
Experiment [7] has as its target T5, human Y4 receptor (Homo sapiens, UniProt P50391).
T5 construct: expressed in transfected cells; host or cells: COS-7 (transient)
The experiment can be described thus: ^125I-PYY binding to membranes, cloned human Y4 receptor.

For experiment [8], the system named is rat Y5 receptor. The experiment is described as follows: Radioimmunoassay of cAMP, 293 cells stably expressing rat Y5 receptor. Type of experiment: cell-based. Conditions: concentrations up to 1 μM.
The target of experiment [9] is T4, rat Y2 receptor. The experiment can be described thus: Antagonism of NPY- or PP-induced activation of rat Y2 receptors. Type of experiment: cell-based. Conditions: concentrations up to 1 μM.
Experiment [10] addresses 5HT1E (Homo sapiens, UniProt P28566). The experiment is described as follows: Binding at cloned human 5HT1E receptor. The settings on record: read-out: pKi 5HT1E (converted). From the text: (§1) The cell line for the 5HT1Dα receptor, designated as Ltk-8-30-84, was deposited on Apr. 17, 1990, and accorded ATCC Accession No. CRL 10421. The cell for the 5HT1Dβ receptor, designated as Ltk-11, was deposited on Apr. 17, 1990, and accorded ATCC Accession No. CRL 10422. The cell line for the 5HT1E receptor, designated 5 HT1E-7, was deposited on Nov. 6, 1991, and accorded ATCC Accession No. CRL 10913. The cell line for the ^5HT1F receptor, designated L-5-HT1F, was deposited on Dec. 27, 1991, and accorded ATCC Accession No. ATCC 10957. Membrane preparations comprising these receptors were prepared as described below, and suspended in 50 mM Tris-HCl buffer (pH 7.4 at 37° C.) containing 10 mM MgCl2, 0.2 mM EDTA, 10 μM pargyline, and 0.1% ascorbate. The binding of compounds was determined in competition binding assays by incubation for 30 minutes at 37° C. in the presence of 5 nM [^3H]serotonin.

Experiment [11] has as its system food intake. The experiment can be described thus: Food intake in food-deprived rats. The settings on record: Rattus norvegicus, ip, 2 h; 30 mg/kg i.p., after 24h food deprivation, two hours; read-out: Two-hour food intake of food-deprived rats, percentage of intake compared to control rats, Mean. Type of experiment: in vivo, rat.
Method: After receipt, the animals are individually housed for the duration of the study and allowed free access to normal food together with tap water. The animals are maintained in a room with a 12 h light/dark cycle (8:00 a.m. to 8:00 p.m. light) at 24° C. and monitored humidity. After placement into individual cages the rats undergo a 4 day equilibration period, during which they are habituated to their new environment and to eating a powdered or pellet diet NAFAG, Gossau, Switzerland).
At the end of the equilibration period, food is removed from the animals for 24 hours starting at 8:00 a.m. At the end of the fasting period compound or vehicle may be administered to the animals orally or by injection intraperitoneally or intravenously. After 10-60 min. food is returned to the animals and their food intake is monitored at various time periods during the following 24 hour period. The food intake of animals treated with test compound may be calculated as a percentage of the food intake of control animals (i.e., animals treated with vehicle). Alternatively, food intake for each group of animals subjected to a particular experimental condition may be expressed as the mean±S.E.M.
Measurements were performed two hours after administration of the test compound.
Experiment [12] concerns the target T6, 5HT1F (Homo sapiens, UniProt P30939).
T6 construct: expressed in transfected cells; host or cells: LM(tk-), line L-5-HT1F (ATCC 10957)
The experiment is described as follows: Binding at cloned human 5HT1F receptor. Conditions: read-out: pKi 5HT1F (converted).
From the text: as §1

Experiment [13] deals with T7, human Y5 receptor (Homo sapiens, UniProt Q15761).
T7 sequence (Q15761 1-445): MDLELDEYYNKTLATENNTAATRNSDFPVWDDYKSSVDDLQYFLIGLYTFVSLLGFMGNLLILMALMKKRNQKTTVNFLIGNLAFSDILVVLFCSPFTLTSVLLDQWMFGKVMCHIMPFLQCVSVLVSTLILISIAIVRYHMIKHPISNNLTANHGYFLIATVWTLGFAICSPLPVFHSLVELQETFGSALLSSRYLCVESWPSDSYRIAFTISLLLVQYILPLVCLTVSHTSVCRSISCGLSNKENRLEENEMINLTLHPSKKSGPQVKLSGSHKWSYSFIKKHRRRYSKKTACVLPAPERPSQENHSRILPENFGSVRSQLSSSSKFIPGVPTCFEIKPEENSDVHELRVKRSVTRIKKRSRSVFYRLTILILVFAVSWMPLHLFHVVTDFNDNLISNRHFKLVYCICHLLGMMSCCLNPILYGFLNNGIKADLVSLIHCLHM
The experiment can be described thus: Radioimmunoassay of cAMP, cells stably expressing human Y5 receptor. Type of experiment: cell-based. Set-up: Ki Values, Human Y5; apparent Kd; pKd; Ki Values, Human Y5 (LM(tk-; The isolated clone (CG-19) turned out to contain a full length cDNA; The longest open reading frame encodes a 455 amino acid protein. The settings on record: block of NPY-induced inhibition of cAMP accumulation. A general note: cAMP levels reflect the balance of adenylyl cyclase and phosphodiesterase activity.
Method: LM(tk-) cells stably transfected with the human Y5 receptor were routinely converted from an adherent monolayer to a viable suspension. […] The cell suspension was maintained in a shaking incubator at 37° C., 5% CO2 for 24 hours. […] Alternatively, cells may be returned to adherent cell culture in complete DMEM by distribution into 96-well microtiter plates coated with poly-D-lysine (0.01 mg/ml) followed by incubation at 37° C., 5% CO2 for 24 hours.
The maximum inhibition of cAMP accumulation (Emax) and the concentration producing a half-maximal effect (EC50) were determined by nonlinear regression analysis according to a 4 parameter logistic equation.
The ability of the compounds to antagonize the Y-type receptors is reported as the Kb. […] The results shown are representative of at least three independent experiments.

Experiment [14] deals with T7, human Y5 receptor. The experiment is described as follows: Radioligand binding to membranes of cells expressing cloned human Y5 receptor. Conditions: Table 14; stably transfected LM(tk-) cells. The arrangement: Ki Values, Human Y5; apparent Kd; pKd; Ki Values, Human Y5 (LM(tk-; The isolated clone (CG-19) turned out to contain a full length cDNA; The longest open reading frame encodes a 455 amino acid protein.

The target in experiment [15] is T8, human Y1 receptor (Homo sapiens, UniProt P25929).
T8 construct: expressed in transfected cells; host or cells: COS-7 (transient)
T8 sequence (P25929 1-384): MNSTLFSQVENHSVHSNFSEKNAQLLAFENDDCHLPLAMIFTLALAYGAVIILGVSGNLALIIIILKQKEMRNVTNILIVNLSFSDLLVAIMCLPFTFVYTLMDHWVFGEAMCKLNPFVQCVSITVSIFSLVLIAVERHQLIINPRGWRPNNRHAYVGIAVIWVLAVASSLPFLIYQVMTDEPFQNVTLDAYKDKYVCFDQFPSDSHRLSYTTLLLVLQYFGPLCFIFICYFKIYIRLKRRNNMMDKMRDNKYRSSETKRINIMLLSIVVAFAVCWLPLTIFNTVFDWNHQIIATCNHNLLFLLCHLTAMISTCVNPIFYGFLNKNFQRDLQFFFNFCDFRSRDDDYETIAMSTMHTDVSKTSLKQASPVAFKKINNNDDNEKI
The experiment can be described thus: ^125I-PYY binding to membranes, cloned human Y1 receptor.

T5 sequence (P50391 whole entry): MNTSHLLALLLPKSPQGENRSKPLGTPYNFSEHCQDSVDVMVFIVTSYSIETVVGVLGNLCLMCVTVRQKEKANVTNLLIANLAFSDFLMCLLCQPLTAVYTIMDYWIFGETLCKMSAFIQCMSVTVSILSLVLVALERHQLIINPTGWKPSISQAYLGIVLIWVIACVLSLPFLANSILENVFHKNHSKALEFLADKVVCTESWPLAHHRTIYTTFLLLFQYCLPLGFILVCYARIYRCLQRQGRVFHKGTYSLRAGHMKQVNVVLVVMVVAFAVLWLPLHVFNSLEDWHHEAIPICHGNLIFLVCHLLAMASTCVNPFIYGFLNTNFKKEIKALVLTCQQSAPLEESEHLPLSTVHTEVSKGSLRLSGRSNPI
T4 sequence (Q9ERC0 1-381): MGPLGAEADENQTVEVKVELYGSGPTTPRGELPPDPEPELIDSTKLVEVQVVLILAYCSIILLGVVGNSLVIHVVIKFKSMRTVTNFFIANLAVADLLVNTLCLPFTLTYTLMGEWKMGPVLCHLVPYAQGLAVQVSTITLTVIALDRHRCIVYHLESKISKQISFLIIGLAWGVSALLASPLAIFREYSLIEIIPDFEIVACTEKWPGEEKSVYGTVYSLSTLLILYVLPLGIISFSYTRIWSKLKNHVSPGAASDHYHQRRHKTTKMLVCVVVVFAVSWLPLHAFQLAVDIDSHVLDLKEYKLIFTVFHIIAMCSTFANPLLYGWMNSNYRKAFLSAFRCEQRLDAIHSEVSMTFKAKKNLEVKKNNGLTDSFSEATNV
5HT1E, sequence (P28566 whole entry): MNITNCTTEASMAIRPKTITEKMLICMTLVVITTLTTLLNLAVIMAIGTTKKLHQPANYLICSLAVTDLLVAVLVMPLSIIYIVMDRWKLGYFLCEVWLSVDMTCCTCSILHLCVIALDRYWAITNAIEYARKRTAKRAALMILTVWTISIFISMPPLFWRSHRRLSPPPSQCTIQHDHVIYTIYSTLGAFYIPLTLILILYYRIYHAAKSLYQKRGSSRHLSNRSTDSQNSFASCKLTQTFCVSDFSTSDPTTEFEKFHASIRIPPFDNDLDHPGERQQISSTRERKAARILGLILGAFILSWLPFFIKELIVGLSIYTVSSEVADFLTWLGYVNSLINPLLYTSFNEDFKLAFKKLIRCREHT
T1 sequence (Q63634 whole entry): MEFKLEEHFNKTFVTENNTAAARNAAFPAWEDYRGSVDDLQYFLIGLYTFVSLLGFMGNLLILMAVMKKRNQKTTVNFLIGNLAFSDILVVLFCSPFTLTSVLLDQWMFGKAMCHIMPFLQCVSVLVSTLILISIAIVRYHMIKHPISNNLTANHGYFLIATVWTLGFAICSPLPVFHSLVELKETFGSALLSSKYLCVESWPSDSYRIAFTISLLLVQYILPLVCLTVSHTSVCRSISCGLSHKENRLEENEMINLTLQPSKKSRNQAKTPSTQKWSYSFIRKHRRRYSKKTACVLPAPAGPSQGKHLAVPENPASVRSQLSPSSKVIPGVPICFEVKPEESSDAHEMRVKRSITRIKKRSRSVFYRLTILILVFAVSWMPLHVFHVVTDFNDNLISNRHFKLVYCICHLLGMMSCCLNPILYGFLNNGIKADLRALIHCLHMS
T6 sequence (P30939 whole entry): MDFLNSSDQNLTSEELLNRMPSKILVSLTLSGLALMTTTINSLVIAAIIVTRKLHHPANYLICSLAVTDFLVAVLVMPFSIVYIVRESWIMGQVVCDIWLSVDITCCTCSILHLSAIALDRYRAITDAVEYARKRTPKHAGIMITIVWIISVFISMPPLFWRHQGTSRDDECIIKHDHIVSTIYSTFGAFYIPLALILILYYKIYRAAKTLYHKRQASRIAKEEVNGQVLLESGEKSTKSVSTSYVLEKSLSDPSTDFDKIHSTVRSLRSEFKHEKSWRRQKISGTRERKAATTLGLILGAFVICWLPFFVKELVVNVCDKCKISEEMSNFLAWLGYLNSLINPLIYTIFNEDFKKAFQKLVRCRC
T2 sequence (Q63447 whole entry): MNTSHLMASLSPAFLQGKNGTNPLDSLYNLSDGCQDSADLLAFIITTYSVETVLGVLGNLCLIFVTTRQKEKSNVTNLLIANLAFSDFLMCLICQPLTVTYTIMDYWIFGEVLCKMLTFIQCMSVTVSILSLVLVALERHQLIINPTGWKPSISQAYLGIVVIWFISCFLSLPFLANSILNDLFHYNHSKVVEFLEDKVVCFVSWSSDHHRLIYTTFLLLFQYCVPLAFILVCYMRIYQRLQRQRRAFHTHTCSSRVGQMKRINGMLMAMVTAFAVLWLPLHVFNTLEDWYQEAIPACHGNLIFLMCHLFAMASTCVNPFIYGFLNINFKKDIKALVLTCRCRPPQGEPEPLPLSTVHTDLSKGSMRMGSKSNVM

As for `NC(N)=NCCC[C@@H](NC(=O)C(c1ccccc1)c1ccccc1)C(=O)NCc1ccc(O)cc1` [BIBP 3226], the Ki in [1] is 25 µM; in experiment [2], 0.42 µM; in experiment [3] it was 17 µM; in experiment [4] (BIBP 3226 at cloned human Y-type receptors, read-out: Ki, human Y2 receptor), 6.9 µM; in experiment [5], 49 µM; in experiment [6] it was 66 µM. The Ki in experiment [7] (BIBP 3226 at cloned human Y-type receptors, read-out: Ki, human Y4 receptor) was 8 µM. For the same compound, in experiment [8], the “antagonism of NPY- or PP-induced activation of rat Y5 receptors” value is recorded as “no evidence for antagonism”. The “antagonism of NPY- or PP-induced activation of rat Y2 receptors” value in experiment [9] is recorded as “no evidence for antagonism”.

For the compound `O=S(=O)(NC[C@H]1CC[C@H](CNC(CO)Cc2ccc(Cl)cc2)CC1)c1cccc2ccccc12` (stereo partly drawn) [Compound 25, Naphthalene-1-sulfonic Acid trans-(4-{[2-(4-Chlorophenyl)-1-hydroxymethyl-ethylamino]-methyl}-cyclohexylmethyl)-amide], the Ki was 0.851 µM in experiment [4] (read-out: Binding Affinity Ki vs. ^125I-PYY, Human Receptor Y2, Table 14, stably transfected 293 cells (compound 1 also COS-7)); at least 5.01 µM in experiment [10]; 13.1 µM in experiment [7] (read-out: Binding Affinity Ki vs. ^125I-PYY, Human Receptor Y4, Table 14, stably transfected LM(tk-) cells); at least 5.01 µM in experiment [12]. Moreover, the response vs control in vivo at 30 mg/kg in experiment [11] is 32%.

`NCC(Cc1ccccc1)Nc1cccc2ccccc12` (stereo not shown) [Compound 28]: the “Y5 receptor antagonist activity” value in experiment [13] was “Y5 receptor antagonist”. Also, the Ki in [4] was over 75 µM; in experiment [14], 19 µM; in experiment [15], over 100 µM; in experiment [7] (Table 14, stably transfected LM(tk-) cells) it was over 100 µM.
